From the supplement of paper PMC10307832

Key:
Experiment in all cases: relative viability (nuclei count vs DMSO), 5 days (fraction); higher = more cells survive
ABC-1 = test system: ABC-1
Procedure, shortened: (§1)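 For relative viability, nuclei counts in treated wells were divided by those in vehicle wells. Lung cancer cell lines had been pin-tool dosed in 1536-well plates the day after seeding and cultured for 5 days, then fixed and stained in one step (final 0.05% Triton X-100, 1% formaldehyde, 1 ug/ml Hoechst) and imaged at 4×. Doses were one drug alone or a fixed anchor-drug dose plus five library-drug doses (not always all listed) in √10 steps, and values are duplicate-plate medians.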

COR-L23 = test system: COR-L23
Procedure, shortened: as §1

EPLC-272H = test system: EPLC-272H
Procedure, shortened: as §1

HARA = test system: HARA
Procedure, shortened: as §1

HCC-15 = test system: HCC-15
Procedure, shortened: as §1

HCC-44 = test system: HCC-44
Procedure, shortened: as §1

HOP-62 = test system: HOP-62
Procedure, shortened: as §1

LC-2-ad = test system: LC-2-ad
Procedure, shortened: as §1

LU99A = test system: LU99A
Procedure, shortened: as §1

NCI-H1355 = test system: NCI-H1355
Procedure, shortened: as §1

NCI-H1651 = test system: NCI-H1651
Procedure, shortened: as §1

NCI-H1915 = test system: NCI-H1915
Procedure, shortened: as §1

NCI-H1993 = test system: NCI-H1993
Procedure, shortened: as §1

NCI-H2023 = test system: NCI-H2023
Procedure, shortened: as §1

NCI-H2085 = test system: NCI-H2085
Procedure, shortened: as §1

NCI-H2126 = test system: NCI-H2126
Procedure, shortened: as §1

NCI-H2347 = test system: NCI-H2347
Procedure, shortened: as §1

NCI-H650 = test system: NCI-H650
Procedure, shortened: as §1

NCI-H838 = test system: NCI-H838
Procedure, shortened: as §1

PC-14 = test system: PC-14
Procedure, shortened: as §1

SW 1573 = test system: SW 1573
Procedure, shortened: as §1

UMC-11 = test system: UMC-11
Procedure, shortened: as §1

Compound: Nc1ccn([C@@H]2O[C@H](CO)[C@@H](O)[C@@H]2O)c(=O)n1 [Cytarabine] + COc1cccc2cc(-c3nc([C@H]4CC[C@H](C(=O)O)CC4)n4ncnc(N)c34)[nH]c12 [OSI-027] (partner 0.5 µM)
- relative viability (ABC-1; first compound 0.005 µM): 0.41
- relative viability (ABC-1; first compound 0.01581 µM): 0.458
- relative viability (ABC-1; first compound 0.05 µM): 0.463
- relative viability (ABC-1; first compound 0.1581 µM): 0.379
- relative viability (ABC-1; first compound 0.5 µM): 0.259
- relative viability (COR-L23; first compound 0.005 µM): 0.396
- relative viability (COR-L23; first compound 0.01581 µM): 0.546
- relative viability (COR-L23; first compound 0.05 µM): 0.546
- relative viability (COR-L23; first compound 0.1581 µM): 0.16
- relative viability (COR-L23; first compound 0.5 µM): 0.116
- relative viability (EPLC-272H; first compound 0.005 µM): 0.268
- relative viability (EPLC-272H; first compound 0.01581 µM): 0.28
- relative viability (EPLC-272H; first compound 0.05 µM): 0.214
- relative viability (EPLC-272H; first compound 0.1581 µM): 0.189
- relative viability (EPLC-272H; first compound 0.5 µM): 0.182
- relative viability (HARA; first compound 0.005 µM): 0.438
- relative viability (HARA; first compound 0.01581 µM): 0.236
- relative viability (HARA; first compound 0.05 µM): 0.149
- relative viability (HARA; first compound 0.1581 µM): 0.107
- relative viability (HARA; first compound 0.5 µM): 0.101
- relative viability (HCC-15; first compound 0.005 µM): 0.597
- relative viability (HCC-15; first compound 0.01581 µM): 0.67
- relative viability (HCC-15; first compound 0.05 µM): 0.669
- relative viability (HCC-15; first compound 0.1581 µM): 0.56
- relative viability (HCC-15; first compound 0.5 µM): 0.412
- relative viability (HCC-44; first compound 0.005 µM): 0.376
- relative viability (HCC-44; first compound 0.01581 µM): 0.461
- relative viability (HCC-44; first compound 0.05 µM): 0.413
- relative viability (HCC-44; first compound 0.1581 µM): 0.189
- relative viability (HCC-44; first compound 0.5 µM): 0.226
- relative viability (HOP-62; first compound 0.005 µM): 0.554
- relative viability (HOP-62; first compound 0.01581 µM): 0.474
- relative viability (HOP-62; first compound 0.05 µM): 0.458
- relative viability (HOP-62; first compound 0.1581 µM): 0.141
- relative viability (HOP-62; first compound 0.5 µM): 0.12
- relative viability (LC-2-ad; first compound 0.005 µM): 0.734
- relative viability (LC-2-ad; first compound 0.01581 µM): 0.69
- relative viability (LC-2-ad; first compound 0.05 µM): 0.539
- relative viability (LC-2-ad; first compound 0.1581 µM): 0.344
- relative viability (LC-2-ad; first compound 0.5 µM): 0.318
- relative viability (LU99A; first compound 0.005 µM): 0.287
- relative viability (LU99A; first compound 0.01581 µM): 0.271
- relative viability (LU99A; first compound 0.05 µM): 0.288
- relative viability (LU99A; first compound 0.1581 µM): 0.288
- relative viability (LU99A; first compound 0.5 µM): 0.281
- relative viability (NCI-H1355; first compound 0.005 µM): 0.41
- relative viability (NCI-H1355; first compound 0.01581 µM): 0.402
- relative viability (NCI-H1355; first compound 0.05 µM): 0.31
- relative viability (NCI-H1355; first compound 0.1581 µM): 0.2
- relative viability (NCI-H1355; first compound 0.5 µM): 0.21
- relative viability (NCI-H1651; first compound 0.005 µM): 0.792
- relative viability (NCI-H1651; first compound 0.01581 µM): 0.675
- relative viability (NCI-H1651; first compound 0.05 µM): 0.81
- relative viability (NCI-H1651; first compound 0.1581 µM): 0.442
- relative viability (NCI-H1651; first compound 0.5 µM): 0.298
- relative viability (NCI-H1915; first compound 0.005 µM): 0.657
- relative viability (NCI-H1915; first compound 0.01581 µM): 0.57
- relative viability (NCI-H1915; first compound 0.05 µM): 0.554
- relative viability (NCI-H1915; first compound 0.1581 µM): 0.372
- relative viability (NCI-H1915; first compound 0.5 µM): 0.338
- relative viability (NCI-H1993; first compound 0.005 µM): 0.599
- relative viability (NCI-H1993; first compound 0.01581 µM): 0.56
- relative viability (NCI-H1993; first compound 0.05 µM): 0.529
- relative viability (NCI-H1993; first compound 0.1581 µM): 0.484
- relative viability (NCI-H1993; first compound 0.5 µM): 0.498
- relative viability (NCI-H2023; first compound 0.005 µM): 0.212
- relative viability (NCI-H2023; first compound 0.01581 µM): 0.152
- relative viability (NCI-H2023; first compound 0.05 µM): 0.107
- relative viability (NCI-H2023; first compound 0.1581 µM): 0.104
- relative viability (NCI-H2023; first compound 0.5 µM): 0.102
- relative viability (NCI-H2085; first compound 0.005 µM): 0.535
- relative viability (NCI-H2085; first compound 0.01581 µM): 0.735
- relative viability (NCI-H2085; first compound 0.05 µM): 0.623
- relative viability (NCI-H2085; first compound 0.1581 µM): 0.442
- relative viability (NCI-H2085; first compound 0.5 µM): 0.459
- relative viability (NCI-H2126; first compound 0.005 µM): 0.62
- relative viability (NCI-H2126; first compound 0.01581 µM): 0.626
- relative viability (NCI-H2126; first compound 0.05 µM): 0.544
- relative viability (NCI-H2126; first compound 0.1581 µM): 0.533
- relative viability (NCI-H2126; first compound 0.5 µM): 0.45
- relative viability (NCI-H2347; first compound 0.005 µM): 0.401
- relative viability (NCI-H2347; first compound 0.01581 µM): 0.282
- relative viability (NCI-H2347; first compound 0.05 µM): 0.336
- relative viability (NCI-H2347; first compound 0.1581 µM): 0.268
- relative viability (NCI-H2347; first compound 0.5 µM): 0.327
- relative viability (NCI-H650; first compound 0.005 µM): 0.438
- relative viability (NCI-H650; first compound 0.01581 µM): 0.424
- relative viability (NCI-H650; first compound 0.05 µM): 0.235
- relative viability (NCI-H650; first compound 0.1581 µM): 0.194
- relative viability (NCI-H650; first compound 0.5 µM): 0.206
- relative viability (NCI-H838; first compound 0.005 µM): 0.397
- relative viability (NCI-H838; first compound 0.01581 µM): 0.379
- relative viability (NCI-H838; first compound 0.05 µM): 0.4
- relative viability (NCI-H838; first compound 0.1581 µM): 0.273
- relative viability (NCI-H838; first compound 0.5 µM): 0.185
- relative viability (PC-14; first compound 0.005 µM): 0.691
- relative viability (PC-14; first compound 0.01581 µM): 0.455
- relative viability (PC-14; first compound 0.05 µM): 0.71
- relative viability (PC-14; first compound 0.1581 µM): 0.166
- relative viability (PC-14; first compound 0.5 µM): 0.115
- relative viability (SW 1573; first compound 0.005 µM): 0.735
- relative viability (SW 1573; first compound 0.01581 µM): 0.49
- relative viability (SW 1573; first compound 0.05 µM): 0.466
- relative viability (SW 1573; first compound 0.1581 µM): 0.131
- relative viability (SW 1573; first compound 0.5 µM): 0.0871
- relative viability (UMC-11; first compound 0.005 µM): 0.314
- relative viability (UMC-11; first compound 0.01581 µM): 0.418
- relative viability (UMC-11; first compound 0.05 µM): 0.386
- relative viability (UMC-11; first compound 0.1581 µM): 0.226
- relative viability (UMC-11; first compound 0.5 µM): 0.226
